Experimental data as given in EP4647069A1, “DRUGS AND COMPOSITIONS FOR USE IN THE TREATMENT OF RETT SYNDROME” (UNIVERSITA' DEGLI STUDI DI TRIESTE, priority 2024, dated 2025).

How the values were obtained:
[1] = test system: MeCP2-KO mouse hippocampal neurons; assay: Phenotypic neuronal atrophy screening in miniaturized 96-well cultures, treatment DIV 3 to DIV 6 (MAP2/NeuN, NeuriteQuant); assay type: cell-based; settings: for total dendritic length (TDL) / terminal branches (EP): individually or in combination; for minimal effective concentration: Mus musculus, Hippocampal neuron, individual drugs, DIV 3 to DIV 6, read-out: minimum effective concentration in the in vitro assays
Protocol: Three morphological parameters were measured: 1) the area of the neuronal cell body (soma), 2) the total dendritic length (TDL), 3) the number of dendritic endpoints (EP).
The Kruskall-Wallis test was also performed in this phase, in order to compare non-parametric data between more than two groups: *p <0.05, **p<0.01, ***p<0.001.
To quantify the effects of the interactions, the same morphological parameters used to test the individual drugs at DIV 6 were measured, namely total dendritic length (TDL) and the number of terminal branches (EP = Endpoints).

[2] = in vivo; cited from earlier work

Compound | total dendritic length (TDL) ([1]; 1 µM, DIV 3 to DIV 6 (fig. 5A, 5B)) | terminal branches (EP) ([1]; 1 µM, DIV 3 to DIV 6 (fig. 5C, 5D)) | minimal effective concentration [1] [µM] | total dendritic length (TDL) ([1]; 0.1 µM, DIV 3 to DIV 6 (fig. 6A, 6B)) | terminal branches (EP) ([1]; 0.1 µM, DIV 3 to DIV 6 (fig. 6C, 6D)) | capabilities to penetrate the blood-brain barrier [2] | half-life [2] [h]
C=C1/C(=C\C=C2/CCC[C@]3(C)[C@@H]([C@H](C)/C=C/[C@@H](O)C4CC4)CC[C@@H]23)C[C@@H](O)C[C@@H]1O [calcipotriene] | no positive effect | no positive effect | 10 |  |  |  | 
O=c1[nH]c(=O)n([C@H]2C[C@H](O)[C@@H](CO)O2)cc1I [idoxuridine] |  |  | 10 | no positive effect | no positive effect |  | 
Cc1ccc(C(=O)c2cc(O)c(O)c([N+](=O)[O-])c2)cc1 [tolcapone] |  |  |  |  |  | excellent | 2.9
